Measurements from PMC11035632, “Discovery of gefitinib-1,2,3-triazole derivatives against lung cancer via inducing apoptosis and inhibiting the colony formation” (Scientific Reports, 2024).

Key:
A549 cells = assay: CCK-8 assay for cell proliferation and cytotoxicity, A549; type: cell-based; conditions: Homo sapiens, CCK-8, 48 h
Protocol: A549 cells were cultured in a humidified incubator at 37 °C with 5% CO2 in Ham’s F-12 K (PM150910, Procell) supplemented with 10% FBS and 1% Penicillin Streptomycin.
(§1) Three types of lung cells were seeded into 96-well plate at a density of 5 × 10^3 cells per well at logarithmic growth phase and cultured in 37 °C. […] After that, cell viability was determined according to the instruction of the CCK-8 assay. Next, 10 μL of CCK-8 solution was added to each well of the plate and incubate the plate for 1–4 h in the incubator. The absorbance was measured at 450 nm using a microplate reader (Bio-Tek). The percentage of viable cells was measured using the following formula where three independent experiments were performed: [(A450 sample − A450blank)/(A450 control − A450blank)] × 100%.

H1299 cells [1] = assay: DAPI staining for cell apoptosis; type: cell-based, human; conditions: H1299, 2, 4 and 8 μmol/L, 48 h
Protocol: In order to further verify the apoptotic activity induced by 7a and 7j in lung cancer cells, H1299 cells were treated with different concentrations of compounds 7a and 7j for 48 h, followed by DAPI staining. […] As the drug concentration increased, nuclear staining intensified, and even nuclear condensation and fragmentation phenomena were observed.
H1299 (1.5 × 10^4 ~ 2 × 10^4 /well) cells were seeded in 24-well plates for 24 h, and then treated with 7a or 7j at the concentrations of 2,4 and 8 μmol/L for 48 h., the cells were fixed for 30 min at room temperature in 4% paraformaldehyde and washed 3 times in PBS. Finally, every well was stained with DAPI (10 µg/mL, C0065, Solarbio) at room temperature for 30 min, and washed at least three times in PBS. The fluorescence microscope was used to observe the morphological changes of cell nuclei.

Kunming mice = assay: Acute oral toxicity test in mice; conditions: mouse, in vivo
Excerpt: SPF-grade healthy Kunming mice (weighing 20 ± 2 g) were purchased from Henan Skibbes Bio-technology Co., Ltd (Licence No.: SCXK (Yu) 2020–0005). The mice were provided free access to drinking water and adaptive feeding for 7 days.
Twenty Kunming mice (half male and half female) were randomly allocate into 4 groups: 7a-treated group (male), 7a-treated group (female), control group (male) and control group (female). The control groups were given PBS intragastric administration, while the 7a groups were given the 7a solution (400 mg/kg, respectively), once a day for 2 consecutive days. Body weight and appearance were monitored for a total period of 12 days (from the first day after treating with 7a). The mice were killed by cervical dislocation on the 12th day, and blood samples were collected for the biochemistry test. Then, we measured liver and kidney function indicators such as alanine aminotransferase (ALT), aspartate aminotransferase (AST), serum creatinine (CRE) and blood urea nitrogen (BUN) (Nanjing Jiancheng Bioengineering Institute, China). The organs (brain, heart, liver, spleen, lungs, kidneys stomach) were harvested, and fixed in 10% formaldehyde and paraffin-embedded for histological examination. Finally, these sections were stained with haematoxylin and eosin for light microscopic examination.

NCI-H1437 cells = assay: CCK-8 assay for cell proliferation and cytotoxicity, NCI-H1437; type: cell-based; conditions: Homo sapiens, CCK-8, 48 h, read-out: IC50 1437
Protocol: as §1

[2] = tested on: Bcl-2, caspase9, Cleaved-Caspase3, Cleaved-PARP, MMP9 in H1299 cells; assay: Western blot of apoptosis- and migration-related proteins; type: cell-based, human; conditions: H1299, 4, 8 or 16 μM, 48 h
Excerpt: We conducted an in-depth investigation into the mechanism of apoptosis induced by compounds 7a and 7j. The Bcl-2 protein family is located upstream of the apoptosis signaling pathway. Bcl-2 proteins play an anti-apoptotic role by inhibiting the release of cytochrome C (cyt-c) from mitochondria. Previous literature reports that many anticancer drugs induce apoptosis by downregulating Bcl-2 expression. During apoptosis, the expression of Bcl-2 is inhibited, cyt-c is released, and it binds with the apoptotic protease activation factor to form the apoptosome. This triggers a cascade reaction of Caspase family proteins, with apoptosome promoting the activation of Caspase9. Activated Caspase9 then activates Caspase3, forming the Caspase3 cleavage body, which further activates downstream PARP protein, ultimately promoting cell apoptosis. […] After treating H1299 cells with different concentrations of compounds for 48 h, cell proteins were extracted, and western blot was used to detect the expression changes of apoptosis-related proteins.
Firstly, H1299 cells were treated with different concentrations concentrations of 7a and 7j at 4, 8 and 16 μmol/L for 48 h, cells were harvested using RIPA lysate (R0010, Solarbio) and centrifuged at 12,000 rpm for 15 min at 4 °C, and then the concentration of total protein was measured and taken from the supernatant. Protein was separated by 12% SDS–polyacrylamide gel electrophoresis and transferred to nitrocellulose filter membrane. after blocking in 5% milk for 2 h, the membranes were incubated with specific primary antibody at 4 °C overnight. Next day, NC membranes were incubated for 1 h at room temperature with appropriate secondary antibodies, and then Protein bands was visualizing by chemiluminescence detection (ECL kit, Genview).

NCI-H1299 cells = assay: CCK-8 assay for cell proliferation and cytotoxicity, NCI-H1299; type: cell-based; conditions: Homo sapiens, CCK-8, 48 h
Protocol: as §1

H1299 cells [3] = assay: Wound healing assay; type: cell-based, human; conditions: 24 h
Protocol: H1299 cells were seeded in a 6-well plate, When the cell confluency reached 95%, a wound line was scratched using a 200 µl pipette tip, and then washed three times, fresh medium containing 7a or 7j (2, 4 and 8 μmol/L) was added, and the plate was incubated at 37 °C with 5% CO2. All the images were captured at 0 h and 24 h under an inverted microscope, and the quantification of scratches was analysed using Image J.

H1299 cells [4] = assay: Colony formation assay; type: cell-based, human; conditions: 7 days
Excerpt: The colony formation assay is an important method for evaluating the ability of adherent cells to proliferate and form colonies on a plate, and it is widely used to assess cell proliferation. We also employed the colony formation assay to further confirm that compounds 7a and 7j can inhibit the proliferation of lung cancer cells, as shown in Fig. 5. After treating lung cancer cells with low, medium, and high concentrations (1, 2, 4 μmol/L) of compounds for 7 days, the number of cell colonies was counted to analyze the proliferation inhibition rate.
H1299 cells were seeded in six-well plates at a density of 500 cells per well and treated with 7a or 7j (1, 2 and 4 μmol/L) for 7 days. Then, cells were per-fixed with 4% paraformaldehyde for 30 min, stained with 0.1% Crystal violet for 15 min, and then washed with pure water. Taking a picture after the plates were air-dry. The clone formations number was counted with Image J.

COc1cc2ncnc(Nc3cccc(-c4cn(Cc5cc(F)ccc5Br)nn4)c3)c2cc1OCCCN1CCOCC1 [Compound 7a]
IC50 (A549 cells): 3.16 ± 0.11 µM
apoptotic morphology by DAPI staining (H1299 cells [1]): exhibited typical apoptotic features
acute toxicity in mice (Kunming mice): low toxicity
IC50 (NCI-H1437 cells): 1.83 ± 0.13 µM
Bcl-2 protein expression level [2]: decrease
Cleaved-Caspase3 protein expression level [2]: increased
Cleaved-PARP protein expression level [2]: increased
MMP9 protein expression [2]: downregulated
caspase9 protein expression level [2]: decrease
IC50 (NCI-H1299 cells): 3.94 ± 0.17 µM
migration closure rate (H1299 cells [3]; H1299, 2 μmol/L): 65.16 ± 7.88%
migration closure rate (H1299 cells [3]; H1299, 4 μmol/L): 50.12 ± 2.99%
migration closure rate (H1299 cells [3]; H1299, 8 μmol/L): 23.54 ± 3.65%
formation of H1299 cell colonies (H1299 cells [4]; 1 μmol/L): markedly inhibit
colony formation (H1299 cells [4]; H1299, 4 μmol/L): almost completely suppressed
